Source: the OPERA property sets (Mansouri et al. 2018)

| logP | Compound |
| --- | --- |
| 3.42 | CCc1ccc(-c2nc3ncccc3[nH]2)cc1 |
| 2.95 | Clc1ccc(-c2nc3ncccc3[nH]2)cc1 |
| 5.38 | Clc1ccc2[nH]c(Cc3ccc(Br)cc3)nc2c1 |
| 3.78 | COc1ccc(-c2nc3cc(C)ccc3[nH]2)c(OC)c1 |
| 4.82 | CC(C)(C)c1ccc(-c2nc3ncccc3[nH]2)cc1 |
| 3.48 | COc1ccc(Cc2nc3cc([N+](=O)[O-])ccc3[nH]2)cc1 |
| 5.18 | Clc1ccc(Cc2nc3cc(Cl)ccc3[nH]2)cc1 |
| 2.52 | Fc1ccc(-c2nc3ncccc3[nH]2)cc1 |
| 3.2 | Nc1ccc(Cc2nc3cc(Cl)ccc3[nH]2)cc1 |
| 4.1 | Cc1ccc(-c2nc3cc([N+](=O)[O-])ccc3[nH]2)c(C)c1 |
| 3.67 | Cc1ccc(-c2nc3ccccc3[nH]2)cc1 |
| 5.21 | Cc1ccc(Cc2nc3cc(Cl)ccc3[nH]2)cc1 |
| 3.42 | Cc1ccccc1-c1nc2cc([N+](=O)[O-])ccc2[nH]1 |
| 3.02 | COc1ccccc1-c1nc2ccccc2[nH]1 |
| 3.02 | Cc1ccc(-c2nc3ncccc3[nH]2)cc1 |
